molecular target: T1, human OX2 receptor (Homo sapiens, UniProt O43614); test: Measurement of orexin type 2 receptor agonist activity (calcium fluorescence, Fluo-4 AM, FDSS); type: cell-based; conditions: compound at 3 μM; CHO cells forcibly expressing human OX2 receptor; DMSO = 0%, 10 nM orexin A (human) = 100%
T1 construct: expressed in transfected cells
T1 sequence (O43614 1-444): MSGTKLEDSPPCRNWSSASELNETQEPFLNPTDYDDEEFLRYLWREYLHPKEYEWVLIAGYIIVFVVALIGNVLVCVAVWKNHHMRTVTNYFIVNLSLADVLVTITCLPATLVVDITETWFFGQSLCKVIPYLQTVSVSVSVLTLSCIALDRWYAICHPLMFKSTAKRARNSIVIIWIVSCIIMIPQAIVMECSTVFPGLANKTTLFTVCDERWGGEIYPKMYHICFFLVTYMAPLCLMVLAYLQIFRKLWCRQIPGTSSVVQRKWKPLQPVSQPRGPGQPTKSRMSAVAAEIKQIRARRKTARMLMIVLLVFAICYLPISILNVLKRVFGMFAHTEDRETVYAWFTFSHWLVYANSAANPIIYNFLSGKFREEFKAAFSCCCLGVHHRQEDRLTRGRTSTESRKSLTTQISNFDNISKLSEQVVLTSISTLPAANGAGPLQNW
Description: In order to obtain cell clones that stably express human orexin type 2 receptor, human orexin type 2 (residues 1-444, NCBI Reference Sequence: AK314279) was constructed in a pcDNA3.1 (+) vector (Invitrogen) to express in mammalian cells. This plasmid DNA was transfected into CHO-K1 cells by electroporation, and stable clones were obtained by limiting dilution using resistance to G418 as a selection marker.
CHO cells in which human OX2 receptor was forcibly expressed were seeded at 10,000 cells/well into a 384-well black transparent bottom plate (BD falcon), and were incubated at 37° C., 5% CO2 for 1 day after incubation at room temperature for 30 minutes. After removing the cell plate medium, assay buffer containing calcium indicator A (HBSS (Thermo Fisher Scientific), 20 mM HEPES (Thermo Fisher Scientific), 0.1% BSA (Sigma-Aldrich), 2.5 μg/mL Fluo-4 AM (Dojin Kagaku), 0.08% Pluronic F127 (Dojin Kagaku), 1.25 mM probenecid (Dojin Kagaku)) was added at 30 μL/well. After incubation in a 5% CO2 incubator at 37° C. for 30 minutes, it was incubated at room temperature for another 30 minutes. Add 10 μL/well of the test compound diluted with assay buffer B (HBSS, 20 mM HEPES, 0.1% BSA), and use FDSS uCELL (Hamamatsu Photonics) to measure the fluorescence value every 1 second for 1 minute, and then every 2 seconds for […]. It was measured for 1 minute and 40 seconds. The amount of fluorescence value when DMSO is added instead of the test compound is defined as 0%, and the amount of fluorescence value when orexin A (human) (Peptide Institute) with a final concentration of 10 nM is added is defined as 100%. The activity (%) of the test compound was calculated.

| OX2R agonist activity (3 μM, %) [%] | SMILES |
| --- | --- |
| 99 | Cc1cnc([C@@H]2CC(N3C[C@@H](NS(C)(=O)=O)[C@@](C)(F)C3)=NO2)c(-c2c(F)cccc2F)c1 (mixture of isomers) [Example 51, mixture of N-[(3R,4S)-1-{(5S)-5-[3-(2,6-difluorophenyl)-5-methylpyridin-2-yl]-4,5-dihydro-1,2-oxazol-3-yl}-4-fluoro-4-methylpyrrolidin-3-yl]methanesulfonamide and N-[(3S,4R)-1-{(5S)-5-[3-(2,6-difluorophenyl)-5-methylpyridin-2-yl]-4,5-dihydro-1,2-oxazol-3-yl}-4-fluoro-4-methylpyrrolidin-3-yl]methanesulfonamide] |
| 17 | Cc1cnc([C@@H]2CC(O[C@@H]3CC[C@H](NS(C)(=O)=O)C3)=NO2)c(-c2c(F)cc(F)cc2F)c1 (mixture of isomers) [Example 62, mixture of N-[(1R,3S)-3-({(5S)-5-[5-methyl-3-(2,4,6-trifluorophenyl)pyridin-2-yl]-4,5-dihydro-1,2-oxazol-3-yl}oxy)cyclopentyl]methanesulfonamide and N-[(1S,3R)-3-({(5S)-5-[5-methyl-3-(2,4,6-trifluorophenyl)pyridin-2-yl]-4,5-dihydro-1,2-oxazol-3-yl}oxy)cyclopentyl]methanesulfonamide] |
| 108 | Cc1cnc([C@@H]2CC(N3C[C@@H](C)[C@H](NS(C)(=O)=O)C3)=NO2)c(-c2c(F)cccc2F)c1 (single isomer, unassigned) [Example 71, optical isomer of N-[(3S,4R)-1-{(5S)-5-[3-(2,6-difluorophenyl)-5-methylpyridin-2-yl]-4,5-dihydro-1,2-oxazol-3-yl}-4-methylpyrrolidin-3-yl]methanesulfonamide or N-[(3R,4S)-1-{(5S)-5-[3-(2,6-difluorophenyl)-5-methylpyridin-2-yl]-4,5-dihydro-1,2-oxazol-3-yl}-4-methylpyrrolidin-3-yl]methanesulfonamide] |
| 105 | Cc1cnc([C@@H]2CC(N3C[C@@H](NS(C)(=O)=O)[C@@](C)(F)C3)=NO2)c(-c2c(F)cc(F)cc2F)c1 (single isomer, unassigned) [Example 75, optical isomer of N-[(3R,4S)-4-fluoro-4-methyl-1-{(5S)-5-[5-methyl-3-(2,4,6-trifluorophenyl)pyridin-2-yl]-4,5-dihydro-1,2-oxazol-3-yl}pyrrolidin-3-yl]methanesulfonamide or N-[(3S,4R)-4-fluoro-4-methyl-1-{(5S)-5-[5-methyl-3-(2,4,6-trifluorophenyl)pyridin-2-yl]-4,5-dihydro-1,2-oxazol-3-yl}pyrrolidin-3-yl]methanesulfonamide] |
| 98 | Cc1cnc([C@@H]2CC(N3C[C@H](F)[C@H](NS(=O)(=O)C4(F)CC4)C3)=NO2)c(-c2c(F)cc(F)cc2F)c1 (single isomer, unassigned) [Example 107, optical isomer of 1-fluoro-N-[(3R,4S)-4-fluoro-1-{(5S)-5-[5-methyl-3-(2,4,6-trifluorophenyl)pyridin-2-yl]-4,5-dihydro-1,2-oxazol-3-yl}pyrrolidin-3-yl]cyclopropane-1-sulfonamide or 1-fluoro-N-[(3S,4R)-4-fluoro-1-{(5S)-5-[5-methyl-3-(2,4,6-trifluorophenyl)pyridin-2-yl]-4,5-dihydro-1,2-oxazol-3-yl}pyrrolidin-3-yl]cyclopropane-1-sulfonamide] |
| 105 | Cc1cnc([C@@H]2CC(N3C[C@H](F)[C@H](NS(=O)(=O)C4(F)CC4)C3)=NO2)c(-c2c(F)cccc2F)c1 (single isomer, unassigned) [Example 117, optical isomer of N-[(3R,4S)-1-{(5S)-5-[3-(2,6-difluorophenyl)-5-methylpyridin-2-yl]-4,5-dihydro-1,2-oxazol-3-yl}-4-fluoropyrrolidin-3-yl]-1-fluorocyclopropane-1-sulfonamide or N-[(3S,4R)-1-{(5S)-5-[3-(2,6-difluorophenyl)-5-methylpyridin-2-yl]-4,5-dihydro-1,2-oxazol-3-yl}-4-fluoropyrrolidin-3-yl]-1-fluorocyclopropane-1-sulfonamide] |
| 99 | C[C@]1(F)CN(C2=NOC(c3c(F)cccc3-c3c(F)cccc3F)C2)C[C@H]1NS(C)(=O)=O (single isomer, unassigned) [Example 155, N-{(3R,4S)-4-fluoro-4-methyl-1-[5-(2′,3,6′-trifluoro[1,1′-biphenyl]-2-yl)-4,5-dihydro-1,2-oxazol-3-yl]pyrrolidin-3-yl}methanesulfonamide or N-{(3S,4R)-4-fluoro-4-methyl-1-[5-(2′,3,6′-trifluoro[1,1′-biphenyl]-2-yl)-4,5-dihydro-1,2-oxazol-3-yl]pyrrolidin-3-yl)methanesulfonamide] |
| 97 | C[C@]1(F)CN(C2=NOC(c3c(F)cc(F)cc3-c3c(F)cccc3F)C2)C[C@H]1NS(C)(=O)=O (single isomer, unassigned) [Example 164] |
| 103 | C[C@]1(F)CN(C2=NOC(c3c(F)ccc(F)c3-c3c(F)cccc3F)C2)C[C@H]1NS(C)(=O)=O (single isomer, unassigned) [Example 168] |
| 103 | CS(=O)(=O)N[C@H]1CCN(C2=NOC(c3ccccc3-c3c(F)cccc3F)C2)C1 (stereo partly drawn) [Example 1, N-{(3S)-1-[5-(2′,6′-difluoro[1,1′-biphenyl]-2-yl)-4,5-dihydro-1,2-oxazol-3-yl]pyrrolidin-3-yl}methanesulfonamide] |
| 77 | CS(=O)(=O)N[C@H]1CCN(C2=NOC(c3ccccc3C3=CCCCC3)C2)C1 (stereo partly drawn) [Example 2, N-{(3S)-1-[5-(2′,3′,4′,5′-tetrahydro[1,1′-biphenyl]-2-yl)-4,5-dihydro-1,2-oxazol-3-yl]pyrrolidin-3-yl}methanesulfonamide] |
| 95 | CCS(=O)(=O)N[C@H]1CCN(C2=NOC(c3ccccc3-c3c(F)cccc3F)C2)C1 (stereo partly drawn) [Example 3, N-{(3S)-1-[5-(2′,6′-difluoro[1,1′-biphenyl]-2-yl)-4,5-dihydro-1,2-oxazol-3-yl]pyrrolidin-3-yl}ethanesulfonamide] |
| 104 | CS(=O)(=O)N[C@@H]1CN(C2=NOC(c3ccccc3-c3c(F)cccc3F)C2)CC1(F)F (stereo partly drawn) [Example 4, N-{(3R)-1-[5-(2′,6′-difluoro[1,1′-biphenyl]-2-yl)-4,5-dihydro-1,2-oxazol-3-yl]-4,4-difluoropyrrolidin-3-yl}methanesulfonamide] |
| 106 | CS(=O)(=O)N[C@H]1CCCN(C2=NOC(c3ccccc3-c3c(F)cccc3F)C2)CC1 (stereo partly drawn) [Example 5, N-{(4S)-1-[5-(2′,6′-difluoro[1,1′-biphenyl]-2-yl)-4,5-dihydro-1,2-oxazol-3-yl]azepan-4-yl}methanesulfonamide] |
| 98 | CS(=O)(=O)N[C@H]1CCCN(C2=NOC(c3ccccc3-c3c(F)cccc3F)C2)C1 (stereo partly drawn) [Example 6, N-{(3S)-1-[5-(2′,6′-difluoro[1,1′-biphenyl]-2-yl)-4,5-dihydro-1,2-oxazol-3-yl]piperidin-3-yl}methanesulfonamide] |
| 53 | CS(=O)(=O)NC1CCN(C2=NOC(c3ccccc3-c3c(F)cccc3F)C2)CC1 (stereo not drawn) [Example 7, N-{1-[5-(2′,6′-difluoro[1,1′-biphenyl]-2-yl)-4,5-dihydro-1,2-oxazol-3-yl]piperidin-4-yl}methanesulfonamide] |
| 104 | CCS(=O)(=O)N[C@H]1CCN(C2=NOC(c3ccc(C)cc3-c3c(F)cccc3F)C2)C1 (stereo partly drawn) [Example 8, N-{(3S)-1-[5-(2′,6′-difluoro-5-methyl[1,1′-biphenyl]-2-yl)-4,5-dihydro-1,2-oxazol-3-yl]pyrrolidin-3-yl}ethanesulfonamide] |
| 13 | CCS(=O)(=O)N[C@H]1CCN(C2=NOC(c3cc(C(F)(F)F)nn3-c3c(F)cccc3F)C2)C1 (stereo partly drawn) [Example 9, N-[(3S)-1-{5-[1-(2,6-difluorophenyl)-3-(trifluoromethyl)-1H-pyrazol-5-yl]-4,5-dihydro-1,2-oxazol-3-yl}pyrrolidin-3-yl]ethanesulfonamide] |
